Read-outs that look alike come from different tables or passages of the source.
How the values were obtained:
in vitro [1] = conditions: mouse, microsomes, pH 7.4, MLM CLint, mouse liver microsomes
[2] = system: Leishmania infantum MHOM/MA(BE)/67/ITMAP263 intracellular amastigotes; assay: microbe, parasite or virus in culture; conditions: Macrophage, in Mus musculus
in vitro [3] = conditions: human
in vitro [4] = conditions: human, HepG2 cells
[5] = system: Trypanosoma cruzi, Tulahuen CL2, beta-galactosidase strain; assay: microbe, parasite or virus in culture; conditions: MRC5, read-out: T. cruzi Tulahuen C4 (LacZ) IC50
[6] = system: Leishmania infantum (MHOM/MA/67/ITMAP-263) intracellular amastigotes in THP-1; assay: microbe, parasite or virus in culture; conditions: THP-1, read-out: L. infantum MHOM/MA/67/ITMAP263 intracellular amastigotes THP-1 cells IC50
physchem = conditions: HPLC, Ascentis Express RP Amide column, pH 7.4, eLogD, experimental
in vitro [7] = conditions: human, HFF-1 cells
[8] = system: primary peritoneal mouse macrophages (PMM); assay: cells; conditions: Macrophage, read-out: PMM IC50
in vitro [9] = conditions: human, microsomes, pH 7.4, HLM CLint, human liver microsomes
in vitro [10] = conditions: PAMPA
in vitro [11] = conditions: human, THP-1 cells differentiated with PMA
[12] = system: L. donovani MHOM/ET/67/L82 intracellular amastigotes; assay: microbe, parasite or virus in culture; conditions: Leishmania donovani, read-out: L. donovani MHOM/ET/67/L82 intracellular amastigotes IC50
[13] = system: primary peritoneal mouse macrophages (PMM); assay: Cytotoxicity to PMM (microscopic scoring within susceptibility assay)
[14] = system: primary peritoneal mouse macrophages (PMM); conditions: PMM IC50 / L. infantum IC50
MRC-5SV2 cells = assay: Cytotoxicity assay on MRC-5SV2 cells (resazurin)
[15] = system: Leishmania infantum MHOM/MA(BE)/67/ITMAP263 intracellular amastigotes; conditions: for IC50: read-out: L. infantum MHOM/MA(BE)/67/ITMAP263 intracellular amastigotes IC50
[16] = system: L. donovani MHOM/ET/67/L82 intracellular amastigotes; conditions: read-out: L. donovani MHOM/ET/67/L82 intracellular amastigotes IC50
[17] = read-out: L. Inf. pIC50, L. infantum intracellular amastigotes (converted)
[18] = read-out: L. infantum MHOM/MA(BE)/67/ITMAP263 intracellular amastigotes IC50, intracellular amastigotes
[19] = read-out: L. Inf. pIC50 (converted)
[20] = read-out: L. infantum MHOM/MA(BE)/67/ITMAP263 intracellular amastigotes IC50

COc1ccc([S+](C)[O-])cc1S(=O)(=O)N(Cc1ccccc1)Cc1ccccc1 (stereo not shown) [DNDI0003578382]
microsomal CLint at 0.5 μM (in vitro [1]): 397 µL/min/mg | IC50 [2, 17]: 0.589 µM | IC50 [2, 18]: 0.59 µM | CC50 at 3 days (in vitro [3]): 21.3 µM | CC50 (in vitro [4]): > 64 µM | IC50 [5]: 16.9 µM | IC50 [6]: 11.5 µM | chromatographic logD (physchem): 3.6 | CC50 (in vitro [7]): > 64 µM | IC50 [8]: > 64 µM | microsomal CLint at 0.5 μM (in vitro [9]): 125 µL/min/mg | Papp (in vitro [10]): 14 ×10⁻⁶ cm/s | CC50 at 120 h (in vitro [11]): > 64 µM

O=S1(=O)c2ccccc2[C@H](O)[C@@H](Cc2ccccc2)N1Cc1ccccc1 [DNDI0003578378]
IC50 [2, 17]: 8.91 µM | IC50 [2, 18]: 8.88 µM | CC50 at 3 days (in vitro [3]): > 64 µM | CC50 (in vitro [4]): 63.9 µM | IC50 [5]: 7.67 µM | IC50 [6]: 19.5 µM | chromatographic logD (physchem): 4.2 | CC50 (in vitro [7]): > 64 µM | IC50 [8]: > 64 µM | CC50 at 120 h (in vitro [11]): 39.7 µM

COc1cc(S(=O)(=O)NC(C)c2ccccc2)c(OC)cc1C (stereo not shown) [DNDI0002622495]
IC50 [12]: > 32 µM | IC50 [2, 19]: > 32 µM | IC50 [2, 20]: > 32 µM | CC50 at 3 days (in vitro [3]): > 32 µM | IC50 [5]: > 32 µM | IC50 [8]: > 32 µM

COCCN(Cc1ccccc1)S(=O)(=O)c1c(OC)ccc(Cl)c1[S+](C)[O-] (stereo not shown) [DNDI0003578380]
microsomal CLint at 0.5 μM (in vitro [1]): 286 µL/min/mg | IC50 [2, 17]: 26.9 µM | IC50 [2, 18]: 26.7 µM | CC50 at 3 days (in vitro [3]): > 64 µM | CC50 (in vitro [4]): > 64 µM | IC50 [5]: > 64 µM | IC50 [6]: > 64 µM | chromatographic logD (physchem): 2.9 | CC50 (in vitro [7]): > 64 µM | IC50 [8]: > 64 µM | microsomal CLint at 0.5 μM (in vitro [9]): 85 µL/min/mg | Papp (in vitro [10]): 17.6 ×10⁻⁶ cm/s | CC50 at 120 h (in vitro [11]): > 64 µM

CCCOc1cc(C)c(C)cc1S(=O)(=O)NCC1CCCO1 (stereo not shown) [DNDI0002622936]
IC50 [12]: > 32 µM | IC50 [2, 19]: 25.1 µM | IC50 [2, 20]: 25.4 µM | CC50 at 3 days (in vitro [3]): > 32 µM | IC50 [5]: > 32 µM | IC50 [8]: > 32 µM

CCCCOc1cc(C)c(Cl)cc1S(=O)(=O)NCc1cccnc1 [DNDI0002558122]
IC50 [12]: 25.4 µM | IC50 [2, 19]: 16.6 µM | IC50 [2, 20]: 16.6 µM | CC50 at 3 days (in vitro [3]): > 32 µM | IC50 [8]: > 32 µM

CCCCCOc1cc(C)c(Cl)cc1S(N)(=O)=O [Compound Z1724003560]
IC50 [13]: > 32 µM | SI (vs PMM) [14]: 1 | CC50 (MRC-5SV2 cells): > 32 µM | IC50 [15]: > 32 µM | IC50 [16]: > 32 µM

CCCCCOc1cc(C)c(C)cc1S(=O)(=O)NC1CC(C)(C)NC(C)(C)C1 [Compound Z2035103903]
IC50 [13]: > 32 µM | SI (vs PMM) [14]: 7 | CC50 (MRC-5SV2 cells): 10.9 µM | L. Inf. pIC50 ([15]; from L. infantum intracellular amastigote IC50): 5.32 | IC50 [15]: 4.76 µM | IC50 [16]: 16.2 µM

CCCOc1cc(C)c(Cl)cc1S(=O)(=O)NCc1cccs1 [DNDI0002572626]
IC50 [12]: > 32 µM | IC50 [2, 19]: 25.1 µM | IC50 [2, 20]: 25.4 µM | CC50 at 3 days (in vitro [3]): > 32 µM | IC50 [5]: > 32 µM | IC50 [8]: > 32 µM

COc1ccc(S(=O)(=O)N(C)C)cc1NC(=O)Cn1c(C)cc2ccccc21 [Compound Z109062140]
IC50 [13]: > 32 µM | SI (vs PMM) [14]: 1 | CC50 (MRC-5SV2 cells): > 32 µM | IC50 [15]: > 32 µM | IC50 [16]: > 32 µM

CCN(CC)S(=O)(=O)c1ccc(OC)c(NC(=O)CNc2cccc3c2CCCC3)c1 [Compound Z133511332]
IC50 [13]: > 32 µM | SI (vs PMM) [14]: 1 | CC50 (MRC-5SV2 cells): > 32 µM | IC50 [15]: > 32 µM | IC50 [16]: > 32 µM

COc1cc(S(=O)(=O)NCc2ccccc2)c(OC)cc1C [DNDI0002564850]
IC50 [12]: > 32 µM | IC50 [2, 19]: > 32 µM | IC50 [2, 20]: > 32 µM | CC50 at 3 days (in vitro [3]): > 32 µM | IC50 [5]: > 32 µM | IC50 [8]: > 32 µM

COc1ccc(S(=O)(=O)N(C)C)cc1NC(=O)Cn1c(=O)oc2ccccc21 [Compound Z15399918]
IC50 [13]: > 32 µM | SI (vs PMM) [14]: 1 | CC50 (MRC-5SV2 cells): > 32 µM | IC50 [15]: > 32 µM | IC50 [16]: > 32 µM

— article PMC8126888 (RSC Medicinal Chemistry, 2020)
